Source: ChEMBL document CHEMBL4507262, “Data for DCP probe A-1596586” (2021)
Calls of active or inactive are those of the source. No cut-off for these calls is given here.

Columns and labels:
[1] = molecular target: Cystic fibrosis transmembrane conductance regulator (Homo sapiens, UniProt P13569); test: CSE-HRP surface expression (Cell surface expression-horseradish peroxidase) assay
[2] = molecular target: Acetylcholinesterase (Homo sapiens) (UniProt P22303); test: Acetylcholinesterase (h) Eurofins-Cerep enzyme and uptake assay; conditions: Compound concentration 10.0 uM
[3] = molecular target: Adenosine receptor A3 (Homo sapiens) (UniProt P0DMS8); test: A3 (h) Eurofins-Cerep binding assay; parameters: ligand concentration 0.15 nM; conditions: filed as agonist, Compound concentration 10.0 uM
[4] = molecular target: Endothelin-1 receptor (Homo sapiens) (UniProt P25101); test: ETA (h) Eurofins-Cerep binding assay; parameters: ligand concentration 0.03 nM; conditions: filed as agonist, Compound concentration 10.0 uM
Chain of Endothelin-1 receptor (Homo sapiens) (P25101 whole entry): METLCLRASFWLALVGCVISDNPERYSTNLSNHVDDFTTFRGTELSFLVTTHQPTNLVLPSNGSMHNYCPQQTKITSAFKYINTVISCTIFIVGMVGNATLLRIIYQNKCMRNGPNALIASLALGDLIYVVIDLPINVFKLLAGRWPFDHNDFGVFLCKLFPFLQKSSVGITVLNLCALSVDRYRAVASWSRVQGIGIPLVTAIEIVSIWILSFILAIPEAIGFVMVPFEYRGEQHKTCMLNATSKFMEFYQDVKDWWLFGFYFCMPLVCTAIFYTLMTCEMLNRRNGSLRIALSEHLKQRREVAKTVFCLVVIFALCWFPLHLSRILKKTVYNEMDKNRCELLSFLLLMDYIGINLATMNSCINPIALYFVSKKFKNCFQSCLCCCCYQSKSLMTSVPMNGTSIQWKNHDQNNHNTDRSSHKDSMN

[5] = molecular target: Histamine H1 receptor (Homo sapiens) (UniProt P35367); test: H1 (h) Eurofins-Cerep binding assay; parameters: ligand concentration 1 nM; conditions: filed as antagonist, Compound concentration 10.0 uM
Chain of Histamine H1 receptor (Homo sapiens) (P35367 whole entry): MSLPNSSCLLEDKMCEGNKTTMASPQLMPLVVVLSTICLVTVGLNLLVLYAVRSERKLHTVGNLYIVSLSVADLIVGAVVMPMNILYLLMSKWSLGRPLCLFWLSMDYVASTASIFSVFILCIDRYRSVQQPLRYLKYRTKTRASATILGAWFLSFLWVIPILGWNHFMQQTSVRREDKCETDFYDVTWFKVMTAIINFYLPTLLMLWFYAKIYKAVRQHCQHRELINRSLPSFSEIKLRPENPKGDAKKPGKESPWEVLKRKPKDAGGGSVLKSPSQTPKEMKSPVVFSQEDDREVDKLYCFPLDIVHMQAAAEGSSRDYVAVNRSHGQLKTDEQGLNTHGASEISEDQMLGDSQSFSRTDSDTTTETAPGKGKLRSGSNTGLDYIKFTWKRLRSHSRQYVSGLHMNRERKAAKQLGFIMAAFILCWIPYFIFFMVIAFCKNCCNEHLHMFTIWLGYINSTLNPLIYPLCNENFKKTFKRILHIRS

[6] = molecular target: GABA-A receptor; anion channel (Rattus norvegicus) (UniProt O09028+P15431+P18506+P18508+P19969+P20236+P23574+P23576+P28471+P28473+P30191+P62813+P63079+P63138+Q91ZM7+Q9ES14); test: Cl- channel (GABA-gated) Eurofins-Cerep binding assay; type: protein-complex assay; parameters: ligand concentration 3 nM; conditions: filed as antagonist, Compound concentration 10.0 uM
[7] = tested on: Tyrosine-protein kinase ABL1 (Homo sapiens), P00519 [M351T]; conditions: Compound concentration 1000.0 nM
[8] = molecular target: Aurora kinase B (Homo sapiens) (UniProt Q96GD4); conditions: Compound concentration 1000.0 nM
[9] = molecular target: Serine/threonine-protein kinase BRSK2 (Homo sapiens) (UniProt Q8IWQ3); conditions: Compound concentration 1000.0 nM
[10] = molecular target: Calcium/calmodulin-dependent protein kinase kinase 2 (Homo sapiens) (UniProt Q96RR4); conditions: Compound concentration 1000.0 nM
[11] = molecular target: Cyclin-dependent kinase 2 (Homo sapiens) (UniProt P24941); conditions: Compound concentration 1000.0 nM
[12] = molecular target: Cyclin-dependent kinase 3 (Homo sapiens) (UniProt Q00526); conditions: Compound concentration 1000.0 nM
[13] = molecular target: Cyclin-dependent kinase 9 (Homo sapiens) (UniProt P50750); conditions: Compound concentration 1000.0 nM
[14] = molecular target: Casein kinase II subunit alpha' (Homo sapiens) (UniProt P19784); conditions: Compound concentration 1000.0 nM
[15] = molecular target: Megakaryocyte-associated tyrosine-protein kinase (Homo sapiens) (UniProt P42679); conditions: Compound concentration 1000.0 nM
[16] = molecular target: Serine/threonine-protein kinase DCLK2 (Homo sapiens) (UniProt Q8N568); conditions: Compound concentration 1000.0 nM
Chain of Serine/threonine-protein kinase DCLK2 (Homo sapiens) (Q8N568 whole entry): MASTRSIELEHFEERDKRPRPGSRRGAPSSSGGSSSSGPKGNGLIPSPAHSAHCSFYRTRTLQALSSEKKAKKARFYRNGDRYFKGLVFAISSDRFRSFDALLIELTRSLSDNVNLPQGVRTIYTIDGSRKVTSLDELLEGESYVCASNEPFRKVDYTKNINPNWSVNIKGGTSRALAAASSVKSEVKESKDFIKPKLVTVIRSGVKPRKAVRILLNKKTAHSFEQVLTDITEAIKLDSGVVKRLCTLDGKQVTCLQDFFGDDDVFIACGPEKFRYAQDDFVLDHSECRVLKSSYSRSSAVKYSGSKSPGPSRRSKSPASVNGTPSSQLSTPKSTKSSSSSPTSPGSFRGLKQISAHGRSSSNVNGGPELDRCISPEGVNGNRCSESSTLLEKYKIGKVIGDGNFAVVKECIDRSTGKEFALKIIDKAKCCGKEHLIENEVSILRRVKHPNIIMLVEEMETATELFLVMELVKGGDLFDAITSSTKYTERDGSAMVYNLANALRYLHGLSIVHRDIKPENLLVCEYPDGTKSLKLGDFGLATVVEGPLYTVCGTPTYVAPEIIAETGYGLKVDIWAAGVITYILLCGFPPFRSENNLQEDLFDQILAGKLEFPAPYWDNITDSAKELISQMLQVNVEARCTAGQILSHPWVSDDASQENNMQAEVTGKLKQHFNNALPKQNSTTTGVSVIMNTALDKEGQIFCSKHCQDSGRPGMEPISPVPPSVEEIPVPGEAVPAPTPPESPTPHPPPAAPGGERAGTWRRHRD

[17] = molecular target: Ephrin type-A receptor 6 (Homo sapiens) (UniProt Q9UF33); conditions: Compound concentration 1000.0 nM
Chain of Ephrin type-A receptor 6 (Homo sapiens) (Q9UF33 whole entry): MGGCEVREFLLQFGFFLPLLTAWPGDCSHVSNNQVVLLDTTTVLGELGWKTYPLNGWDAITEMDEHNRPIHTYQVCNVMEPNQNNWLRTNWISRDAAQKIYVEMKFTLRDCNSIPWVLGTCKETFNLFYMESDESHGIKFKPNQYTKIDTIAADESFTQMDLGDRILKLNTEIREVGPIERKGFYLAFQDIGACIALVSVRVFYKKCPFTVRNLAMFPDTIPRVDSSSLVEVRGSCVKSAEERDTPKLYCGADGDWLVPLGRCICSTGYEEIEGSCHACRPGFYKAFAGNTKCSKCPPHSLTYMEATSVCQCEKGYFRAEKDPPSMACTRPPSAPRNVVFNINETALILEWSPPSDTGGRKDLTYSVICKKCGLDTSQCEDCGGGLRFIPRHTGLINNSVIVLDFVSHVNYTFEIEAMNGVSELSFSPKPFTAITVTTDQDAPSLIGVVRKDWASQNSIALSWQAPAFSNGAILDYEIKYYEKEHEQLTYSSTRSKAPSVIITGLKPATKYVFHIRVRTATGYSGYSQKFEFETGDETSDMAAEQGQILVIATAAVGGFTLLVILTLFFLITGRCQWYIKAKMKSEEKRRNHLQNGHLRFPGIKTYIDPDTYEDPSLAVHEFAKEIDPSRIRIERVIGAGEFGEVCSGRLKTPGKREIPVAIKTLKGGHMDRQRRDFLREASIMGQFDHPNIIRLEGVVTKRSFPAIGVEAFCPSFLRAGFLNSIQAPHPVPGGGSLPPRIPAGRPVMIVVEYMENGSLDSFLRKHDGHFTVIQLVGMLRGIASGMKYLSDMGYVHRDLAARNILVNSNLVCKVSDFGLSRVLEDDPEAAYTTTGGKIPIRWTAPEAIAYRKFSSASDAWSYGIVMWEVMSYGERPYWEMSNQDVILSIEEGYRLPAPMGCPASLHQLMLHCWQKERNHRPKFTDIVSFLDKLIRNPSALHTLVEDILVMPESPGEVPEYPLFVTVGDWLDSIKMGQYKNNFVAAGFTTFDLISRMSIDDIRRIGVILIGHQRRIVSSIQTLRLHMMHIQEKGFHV

[18] = molecular target: Mitogen-activated protein kinase 7 (Homo sapiens) (UniProt Q13164); conditions: Compound concentration 1000.0 nM
[19] = molecular target: Vascular endothelial growth factor receptor 3 (Homo sapiens) (UniProt P35916); conditions: Compound concentration 1000.0 nM
[20] = molecular target: Interleukin-1 receptor-associated kinase 3 (Homo sapiens) (UniProt Q9Y616); conditions: Compound concentration 1000.0 nM
[21] = tested on: Mast/stem cell growth factor receptor Kit (Homo sapiens), P10721 [L576P]; conditions: Compound concentration 1000.0 nM
[22] = molecular target: Tyrosine-protein kinase Lck (Homo sapiens) (UniProt P06239); conditions: Compound concentration 1000.0 nM
[23] = molecular target: Serine/threonine-protein kinase PLK1 (Homo sapiens) (UniProt P53350); conditions: Compound concentration 1000.0 nM
[24] = molecular target: Ribosomal protein S6 kinase alpha-4 (Homo sapiens) (UniProt O75676); conditions: Compound concentration 1000.0 nM
Chain of Ribosomal protein S6 kinase alpha-4 (Homo sapiens) (O75676 whole entry, looked up): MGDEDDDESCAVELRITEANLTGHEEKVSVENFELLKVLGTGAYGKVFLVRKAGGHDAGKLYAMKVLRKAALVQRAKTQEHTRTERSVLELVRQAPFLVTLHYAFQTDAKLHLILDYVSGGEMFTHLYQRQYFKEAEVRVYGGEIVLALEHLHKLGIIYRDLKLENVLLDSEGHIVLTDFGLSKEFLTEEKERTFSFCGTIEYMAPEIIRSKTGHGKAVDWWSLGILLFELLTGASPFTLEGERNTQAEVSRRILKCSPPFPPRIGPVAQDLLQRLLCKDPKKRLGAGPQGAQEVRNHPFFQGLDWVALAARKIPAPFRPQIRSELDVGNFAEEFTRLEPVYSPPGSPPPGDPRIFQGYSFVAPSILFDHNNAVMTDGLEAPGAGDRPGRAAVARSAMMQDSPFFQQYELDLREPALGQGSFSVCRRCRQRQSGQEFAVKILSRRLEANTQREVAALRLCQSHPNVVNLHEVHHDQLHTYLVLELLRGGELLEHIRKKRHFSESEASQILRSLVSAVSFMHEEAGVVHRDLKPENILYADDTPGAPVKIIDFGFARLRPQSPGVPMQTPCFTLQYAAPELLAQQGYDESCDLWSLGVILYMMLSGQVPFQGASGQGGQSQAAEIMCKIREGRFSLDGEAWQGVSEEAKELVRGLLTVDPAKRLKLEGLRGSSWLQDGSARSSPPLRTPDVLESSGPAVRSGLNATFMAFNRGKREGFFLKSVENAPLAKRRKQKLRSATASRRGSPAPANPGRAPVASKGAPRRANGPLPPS

[25] = molecular target: Ribosomal protein S6 kinase alpha-3 (Homo sapiens) (UniProt P51812); conditions: Compound concentration 1000.0 nM
Chain of Ribosomal protein S6 kinase alpha-3 (Homo sapiens) (P51812 whole entry): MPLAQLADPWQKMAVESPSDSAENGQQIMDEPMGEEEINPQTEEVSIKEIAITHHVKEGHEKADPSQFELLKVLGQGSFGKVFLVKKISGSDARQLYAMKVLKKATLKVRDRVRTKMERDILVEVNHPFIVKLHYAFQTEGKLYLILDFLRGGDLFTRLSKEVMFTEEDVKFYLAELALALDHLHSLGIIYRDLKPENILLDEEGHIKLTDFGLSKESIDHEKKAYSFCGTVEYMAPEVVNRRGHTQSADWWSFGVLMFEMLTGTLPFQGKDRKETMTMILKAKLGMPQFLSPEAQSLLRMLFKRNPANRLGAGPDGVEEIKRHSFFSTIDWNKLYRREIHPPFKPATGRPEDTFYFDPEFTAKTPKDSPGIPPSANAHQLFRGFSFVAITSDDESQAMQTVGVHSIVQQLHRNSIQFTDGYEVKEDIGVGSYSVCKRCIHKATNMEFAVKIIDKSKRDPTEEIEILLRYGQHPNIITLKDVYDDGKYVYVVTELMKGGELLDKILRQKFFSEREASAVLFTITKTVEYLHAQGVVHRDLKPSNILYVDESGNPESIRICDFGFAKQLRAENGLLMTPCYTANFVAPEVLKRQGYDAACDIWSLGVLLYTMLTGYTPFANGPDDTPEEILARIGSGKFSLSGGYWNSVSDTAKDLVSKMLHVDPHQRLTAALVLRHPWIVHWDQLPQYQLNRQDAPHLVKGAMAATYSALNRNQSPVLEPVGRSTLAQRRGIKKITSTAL

[26] = molecular target: Serine/threonine-protein kinase SIK1 (Homo sapiens) (UniProt P57059); conditions: Compound concentration 1000.0 nM
[27] = molecular target: SRSF protein kinase 1 (Homo sapiens) (UniProt Q96SB4); conditions: Compound concentration 1000.0 nM
[28] = molecular target: Serine/threonine-protein kinase 16 (Homo sapiens) (UniProt O75716); conditions: Compound concentration 1000.0 nM
[29] = molecular target: Tyrosine-protein kinase Tec (Homo sapiens) (UniProt P42680); conditions: Compound concentration 1000.0 nM
Chain of Tyrosine-protein kinase Tec (Homo sapiens) (P42680 whole entry): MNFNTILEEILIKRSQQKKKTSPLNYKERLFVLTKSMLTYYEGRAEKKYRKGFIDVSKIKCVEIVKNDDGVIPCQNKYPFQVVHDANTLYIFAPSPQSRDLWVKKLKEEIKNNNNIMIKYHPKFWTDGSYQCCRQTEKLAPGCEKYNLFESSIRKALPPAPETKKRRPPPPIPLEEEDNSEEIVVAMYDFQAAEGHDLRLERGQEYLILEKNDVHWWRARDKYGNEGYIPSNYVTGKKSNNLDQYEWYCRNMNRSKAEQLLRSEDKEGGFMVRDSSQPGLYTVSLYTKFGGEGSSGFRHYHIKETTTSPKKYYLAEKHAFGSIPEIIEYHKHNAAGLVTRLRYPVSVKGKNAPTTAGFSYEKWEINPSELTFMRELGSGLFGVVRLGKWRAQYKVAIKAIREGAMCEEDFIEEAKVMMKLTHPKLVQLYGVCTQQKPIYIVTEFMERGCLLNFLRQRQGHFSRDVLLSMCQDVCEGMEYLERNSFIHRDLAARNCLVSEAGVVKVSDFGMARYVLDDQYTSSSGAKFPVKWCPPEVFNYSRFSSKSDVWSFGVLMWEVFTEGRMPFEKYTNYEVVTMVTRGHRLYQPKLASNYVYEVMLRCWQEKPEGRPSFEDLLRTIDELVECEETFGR

[30] = molecular target: Angiopoietin-1 receptor (Homo sapiens) (UniProt Q02763); conditions: Compound concentration 1000.0 nM
[31] = molecular target: Serine/threonine-protein kinase tousled-like 2 (Homo sapiens) (UniProt Q86UE8); conditions: Compound concentration 1000.0 nM
[32] = molecular target: Wee1-like protein kinase 2 (Homo sapiens) (UniProt P0C1S8); conditions: Compound concentration 1000.0 nM
[33] = molecular target: 5-hydroxytryptamine receptor 1D (Homo sapiens) (UniProt P28221); conditions: Compound concentration 10.0 uM
[34] = molecular target: T1, Muscarinic acetylcholine receptor M4 (Homo sapiens) (UniProt P08173); conditions: Compound concentration 10.0 uM
T1 sequence (whole entry): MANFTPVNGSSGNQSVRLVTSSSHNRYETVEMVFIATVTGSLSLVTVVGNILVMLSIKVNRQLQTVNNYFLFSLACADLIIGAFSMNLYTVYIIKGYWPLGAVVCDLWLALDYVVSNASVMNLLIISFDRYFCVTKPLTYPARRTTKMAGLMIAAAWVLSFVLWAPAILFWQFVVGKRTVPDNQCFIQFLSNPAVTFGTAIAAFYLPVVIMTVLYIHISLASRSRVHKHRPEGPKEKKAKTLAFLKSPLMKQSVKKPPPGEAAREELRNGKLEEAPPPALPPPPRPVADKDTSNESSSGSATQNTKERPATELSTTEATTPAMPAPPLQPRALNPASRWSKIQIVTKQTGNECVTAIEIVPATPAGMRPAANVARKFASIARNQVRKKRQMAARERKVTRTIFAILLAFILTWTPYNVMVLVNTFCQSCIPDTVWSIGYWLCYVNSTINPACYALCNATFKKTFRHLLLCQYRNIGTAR

| SMILES | EC50 [1] | % Inhibition of Control Values (Mean n=2) [2] [%] | % Inhibition of Control Specific Binding (Mean n=2) [3] [%] | % Inhibition of Control Specific Binding (Mean n=2) [4] [%] | % Inhibition of Control Specific Binding (Mean n=2) [5] [%] | % Inhibition of Control Specific Binding (Mean n=2) [6] [%] | residual activity [7] [%] | residual activity [8] [%] | residual activity [9] [%] | residual activity [10] [%] | residual activity [11] [%] | residual activity [12] [%] | residual activity [13] [%] | residual activity [14] [%] | residual activity [15] [%] | residual activity [16] [%] | residual activity [17] [%] | residual activity [18] [%] | residual activity [19] [%] | residual activity [20] [%] | also measured |
| --- | --- | --- | --- | --- | --- | --- | --- | --- | --- | --- | --- | --- | --- | --- | --- | --- | --- | --- | --- | --- | --- |
| COc1ccc2c(c1)O[C@H](c1ccc(OC)c(OC)c1)C[C@@H]2NC(=O)C1(c2ccc3c(c2)OC(F)(F)O3)CC1 [A-1596584] | 1000 nM (not active) | -3.9 | 67.7 | 4 | 4.5 | 82.4 | 88 | 98 | 88 | 100 | 100 | 100 | 78 | 100 | 100 | 98 | 100 | 100 | 97 | 86 | residual activity [21]: 100%; residual activity [22]: 100%; residual activity [23]: 83%; residual activity [24]: 100%; residual activity [25]: 93%; residual activity [26]: 100%; residual activity [27]: 100%; residual activity [28]: 100%; residual activity [29]: 100%; residual activity [30]: 70%; residual activity [31]: 98%; residual activity [32]: 100%; inhibition [33]: 6.1%; inhibition [34]: 0.59% |
| COc1ccc2c(c1)O[C@@H](c1ccc(OC)c(OC)c1)C[C@H]2NC(=O)C1(c2ccc3c(c2)OC(F)(F)O3)CC1 [A-1596586] | 130 nM (active) | -6.2 | 63.9 | -6.9 | 6.7 | 57.7 | 78 | 84 | 100 | 96 | 99 | 100 | 89 | 87 | 93 | 86 | 89 | 100 | 91 | 85 | residual activity [21]: 92%; residual activity [22]: 100%; residual activity [23]: 70%; residual activity [24]: 94%; residual activity [25]: 100%; residual activity [26]: 100%; residual activity [27]: 95%; residual activity [28]: 81%; residual activity [29]: 89%; residual activity [30]: 92%; residual activity [31]: 100%; residual activity [32]: 100%; inhibition [33]: 4.36%; inhibition [34]: -2.72% |
